# Laboratory results from US20080122428A1, “Optimized Determination of Voltage Changes Using a Voltage-Sensitive Dye” (Max-Planck-Gesellschaft zur Forderungder Wissenschaften e. …, priority 2003, published 2008).
# Where “and” joins values, the source holds several entries; their conditions need not be identical. Equal entries are not always repeated.
# How the values were obtained:
# [1] = test system: Retzius cells (leech neurons); conditions: cited from earlier work; for shift of the excitation spectrum per membrane voltage: Kuhn and Fromherz, 2003
# HEK293 cells [2] = assay: Tight-seal whole-cell voltage-clamp recordings of HEK293 cells, sensitivity at 514 nm; assay type: cell-based; conditions: four cells, voltage jumps +/−25, +/−50, +/−75 mV
# Procedure: Whole-cell tight-seal voltage-clamp recordings on HEK293 cells were preformed using pipettes with a resistance of around 6 MOhm and an epc9 amplifier (HEKA, Göttingen, Germany).
# To test our assumption about the extracellular stimulation the sensitivity at 514 nm was tested by controlling the membrane voltage directly using tight-seal whole-cell recordings of HEK293 cells (FIG. 22). The mean sensitivity measured in four cells using voltage jumps of +/−25, +/−50 and +/−75 mV is −0.37±0.02%/mV, in agreement with the results achieved by the external electric field method.
# [3] = Maximal theoretical sensitivity for excitation in the Boltzmann tail; conditions: from shift of 1.6 cm^−1/mV
# Text: A common approximation used for spectral shapes is the log-normal function (Siano and Metzler, 1969), which would imply an ever increasing, in fact, diverging sensitivity toward longer wavelengths and the vanishing of excitation above a wavelength of 591 nm. However, simple considerations predict a tail in the absorption spectrum F that follows a Boltzmann distribution (Hinshelwood, 1940)
# because an electronic transition between the ground and the excited state with the energy difference h ν00c (h Planck constant, ν00 wavenumber of the 00 transition, c light velocity) and an excitation energy h νc ( ν wavenumber of excitation), which is assumed to be below h ν00c, requires additional vibrational energy E=h ν00c−h νc to reach the lowest excited state, in analogy to anti-Stokes lines in scattering theory. […]
# for excitation in the Boltzmann tail (Δμ is the intramolecular charge displacement upon electronic excitation, d is the membrane thickness, θ is the angle between charge displacement and membrane normal). […] For comparison: the highest measured sensitivity value was −0.52±0.05%/mV (with 2-photon excitation at 1040 nm, corresponding to 520 nm). […]
# HEK293 cells [4] = assay: Voltage sensitivity in HEK293 cells by extracellular electric field, laser line scans with one- or two-photon excitation; assay type: cell-based
# Procedure: HEK293 cells (DSMZ GmbH, Braunschweig, Germany) were cultured using standard methods on glass coverslips (diameter 24 mm, Assistent, Glaswarenfabrik Karl Hecht KG, Sondheim, Germany). The coverslips were coated with fibronectin (No. 68885, Boehringer-Mannheim, Germany) in PBS (140 mM NaCl, 2.7 mM KCl, 1.5 mM KH2PO4, 6.5 mM Na2HPO4×2H2O) by incubation for 45 min in a 10 μg/ml fibronectin solution and a single subsequent wash with PBS. The cells were plated at densities of 15000 cells per coverslip and were used for up to three days after plating, while the cell density was still low. All measurements were done in a Ringer solution containing (in mM) 135 NaCl, 5.4 KCl, 1.0 MgCl2, 1.8 CaCl2 and 5.0 Hepes, adjusted to pH 7.2 with NaOH.
# ANNINE-6 (FIG. 19a) was dissolved in a solution of 20% Pluronic F-127 DMSO (P-3000, Molecular Probes, Eugene, Oreg.) at a concentration of 0.5 mg/ml and sonicated for 15 min. The glass coverslip with the HEK293 cells was taken out of the culture well, exposed to the staining solution (dye stock solution diluted 1:100 into Ringer) for 5 min and finally washed with pure Ringer solution.
# To change the voltage across the cell membrane we applied an extracellular electric field. This method (Gross et al., 1986) has a somewhat reduced voltage calibration accuracy but is much simpler than whole-cell recordings, for example, permitting the transfer of the recording chamber between microscope setups thereby allowing the exploration of a wider parameter range. Our custom-made chamber (FIG. 19b) consists of a 2.6 mm wide, and 30 mm long slit in a 0.5 mm thick PMMA (Plexiglas) plate. Two chlorided silver wires (diameter 0.127 mm, Cat. No. 7860, A-M Systems, INC., Everett, Wash.) for the application of the electrical field were fixed to the long edges of the channel with two-component epoxy resin glue (plus sofortfest, UHU, Bühl, Germany). This chamber was sealed on the bottom with a clean coverslip (24 mm×50 mm) attached with silicone grease (Bayer-silicone, Bayer AG, Leverkusen, Germany). The coverslip with the stained HEK293 cells was dried around the edges to get a watertight seal with silicone grease and then mounted cells down on the top side of the chamber. Two openings allowed the continuous perfusion (about 2 ml/min) with physiological saline using a gravity-fed perfusion system.
# The voltage stimuli were generated by an arbitrary waveform generator (model 395, wavetek, Ismaning, Germany) and amplified by a custom-built push-pull circuit (using two operational amplifiers, OPA547, Texas Instruments Inc., Texas, USA, FIG. 19c). To avoid electrolysis at the electrodes and ionophoresis of cell-surface components all applied voltage waveforms were purely AC. Short pulses were used to minimize heating (FIG. 19d). The application of the pulse protocol was synchronized to the start of line scan acquisition.
# For one-photon excitation we used laser scanning microscopes (Zeiss LSM 510 NLO and Leica TCS SP2) with Ar-ion laser excitation (458 nm, 488 nm, or 514 nm). We used laser illumination instead of, for example, Xe arc-lamps because narrow spectral width and high intensities are needed to obtain sufficient excitation of the dye at the spectral edge. The excitation light at the Zeiss microscope was coupled in via the main dichroic beam splitters (HFT 458/514, reflecting the 458 nm and 514 nm laser lines or HFT KP 700/488, a combined 700 nm short pass and 488 nm reflector). The emitted light was filtered by a long-pass filter (LP560). The Leica microscope uses an acousto-optical main beam splitter and fluorescence was collected in the range of 520 nm to 800 nm. The maximal excitation intensities at the sample were for the Zeiss (Leica) microscope: 1.3 mW (1.5 mW) at 514 nm, 200 μW (250 μW) at 488 nm and 28 μW (35 μW) at 458 nm. The pinhole was completely opened up (8.5 airy units) to collect as much light as possible. […]
# HEK293 cells [5] = assay: Example 4: HEK293 cells stained by bath application, alternating external electric fields, 1 kHz line scans; assay type: cell-based
# Text: ANNINE-6 is a new, completely anellated hemicyanine dye. […] Several biological preparations were used for testing. First, HEK293 cells were stained by bath application of the dye. Alternating external electric fields generated by applying voltages between two Ag/AgCl-wires in a closed chamber (1). To achieve the high light intensities, which are necessary to excite the dye at the very red edge of the excitation spectrum, we used laser scanning microscopes with Ar-Ion Laser for one-photon excitation (488 nm, 514 nm) and Ti:Sapphire Laser for two-photon excitation (976 nm). The fluorescence changes measured with 1 kHz line scans followed the applied voltage, which was alternated every 10 ms, without discernible delay. We found relative fluorescence increases of more that 60%/100 mV for hyperpolarizing membrane potential changes and decreases of more than 40%/100 mV for depolarizing membrane potential changes at 514 nm excitation wavelength. The asymmetry of the fluorescence change is expected given the spectral shape and a pure electrochromic spectral shift. We found changes of +40%/100 mV and −30%/100 mV both for one-photon excitation at 488 nm and two-photon excitation at 976 nm. Preliminary measurements from cultured hippocampal slices using a soluble variant of ANNINE-6 show fast fluorescence changes of up to 8% upon stimulation of the Schaffer collaterals in CA1. • (1) D. Gross, L. M. Loew and W. Webb. Biophys. J., 50: 339-348, 1986.
smiles,measurement,setting,value
CCCCN(CCCC)c1ccc2c(ccc3c2ccc2c4cc[n+](CCCCS(=O)(=O)[O-])cc4ccc23)c1 [ANNINE-5],shift of the excitation spectrum per membrane voltage,[1],1.3 cm^−1/mV
CCCCN(CCCC)c1ccc2c(ccc3c2ccc2c4ccc5c[n+](CCCCS(=O)(=O)[O-])ccc5c4ccc32)c1 [ANNINE-6],mean sensitivity with direct control of membrane voltage,HEK293 cells [2],−0.37±0.02 %/mV
same,Boltzmann-tail sensitivity (theoretical limit),[3],−0.77 %/mV
same,fluorescence change for large voltage swing,"HEK293 cells [4]; 100 mV depolarization, 514 nm",−28%
same,fluorescence change for large voltage swing,"HEK293 cells [4]; 100 mV depolarization, 1040 nm",−40%
same,fluorescence change for large voltage swing,"HEK293 cells [4]; 100 mV hyperpolarization, 514 nm",50%
same,fluorescence change for large voltage swing,"HEK293 cells [4]; 100 mV hyperpolarization, 1040 nm",70%
same,sensitivity,"HEK293 cells [4]; 515 nm, 1-photon, dye incorporated inside the cells (as expected)",0.37 %/mV
same,sensitivity,"HEK293 cells [4]; 515 nm, 2-photon, dye incorporated inside the cells (as expected)",0.52 %/mV
same,2PE sensitivity higher than 1PE sensitivity at half the wavelength,"HEK293 cells [4]; 976 nm versus 488 nm, same cell",about 20%
same,sensitivity at end of repeated line scans,HEK293 cells [4]; after 900 line scans at 1040 nm over a period of over 2 h,−0.58±0.02 %/mV
same,"slope sensitivity at the resting potential, single cell","HEK293 cells [4]; cell of FIG. 21a, one-photon 458 nm",−0.16 %/mV
same,"slope sensitivity at the resting potential, single cell","HEK293 cells [4]; cell of FIG. 21a, one-photon 488 nm",−0.26 %/mV
same,"slope sensitivity at the resting potential, single cell","HEK293 cells [4]; cell of FIG. 21a, one-photon 514 nm",−0.37 %/mV
same,"slope sensitivity at the resting potential, single cell","HEK293 cells [4]; cell of FIG. 23, two-photon 960 nm",−0.35 %/mV
same,"slope sensitivity at the resting potential, single cell","HEK293 cells [4]; cell of FIG. 23, two-photon 980 nm",−0.41 %/mV
same,"slope sensitivity at the resting potential, single cell","HEK293 cells [4]; cell of FIG. 23, two-photon 1000 nm",−0.49 %/mV
same,"slope sensitivity at the resting potential, single cell","HEK293 cells [4]; cell of FIG. 23, two-photon 1020 nm",−0.54 %/mV
same,"slope sensitivity at the resting potential, single cell","HEK293 cells [4]; cell of FIG. 23, two-photon 1040 nm",−0.59 %/mV
same,sensitivity,"HEK293 cells [4]; excitation wavelength 515 nm, 1-photon, dye at the outer side of the membrane",−0.37 %/mV
same,small-signal fractional fluorescence change (mean sensitivity),"HEK293 cells [4]; one-photon excitation 488 nm, four cells",−0.28 %/mV and −0.28±0.03 %/mV
same,small-signal fractional fluorescence change (mean sensitivity),"HEK293 cells [4]; one-photon excitation 514 nm, four cells",−0.35 %/mV and −0.35±0.03 %/mV
same,sensitivity at begin of repeated line scans,"HEK293 cells [4]; single cell, excitation at 1040 nm",−0.59±0.01 %/mV
same,small-signal fractional fluorescence change (mean sensitivity),"HEK293 cells [4]; two-photon excitation 960 nm, 4 cells",−0.29 %/mV and −0.29±0.05 %/mV
same,mean sensitivity,"HEK293 cells [4]; two-photon excitation 980 nm, 4 cells",−0.35±0.05 %/mV
same,small-signal fractional fluorescence change (mean sensitivity),"HEK293 cells [4]; two-photon excitation 1000 nm, 4 cells",−0.43 %/mV and −0.43±0.05 %/mV
same,mean sensitivity,"HEK293 cells [4]; two-photon excitation 1020 nm, 4 cells",−0.47±0.06 %/mV
same,small-signal fractional fluorescence change (mean sensitivity),"HEK293 cells [4]; two-photon excitation 1040 nm, 4 cells",−0.52 %/mV and −0.52±0.06 %/mV and −0.52±0.05 %/mV
same,relative fluorescence decrease,"HEK293 cells [5]; depolarizing membrane potential changes, 514 nm",more than 40 %/100 mV
same,relative fluorescence increase,"HEK293 cells [5]; hyperpolarizing membrane potential changes, 514 nm",> 60 %/100 mV
same,"relative fluorescence change, negative",HEK293 cells [5]; one-photon excitation 488 nm,−30 %/100 mV
same,"relative fluorescence change, positive",HEK293 cells [5]; one-photon excitation 488 nm,+40 %/100 mV
same,"relative fluorescence change, negative",HEK293 cells [5]; two-photon excitation 976 nm,−30 %/100 mV
same,"relative fluorescence change, positive",HEK293 cells [5]; two-photon excitation 976 nm,+40 %/100 mV
same,sensitivity in Leech,"[1]; 488 nm, published (Kuhn and Fromherz, 2003)",−0.29 %/mV
same,shift of the excitation spectrum per membrane voltage,[1],1.6 cm^−1/mV
"CCCCCN(CCCCC)c1ccc(/C=C/C=C/c2cc[n+](CCCCS(=O)(=O)[O-])cc2)cc1 [RH-421, reference compound]",shift of the excitation spectrum per membrane voltage,[1],0.5 cm^−1/mV
"CCCCN(CCCC)c1ccc2cc(C=Cc3cc[n+](CCCCS(=O)(=O)[O-])cc3)ccc2c1 [di-4-ANEPBS, reference compound]",shift of the excitation spectrum per membrane voltage,[1],0.9 cm^−1/mV
